Data: patent US9597431B2, “Compositions and methods for promoting bone formation” (Warsaw Orthopedic, Inc., priority 2008, dated 2017)

B1: RANKL: recombinant receptor activator for nuclear factor κ B ligand, mixed with Grafton DBM FLEX demineralized bone matrix implant (protein, UniProt O14788 140-317, looked up)
Tumor necrosis factor ligand …: IRAEKAMVDGSWLDLAKRSKLEAQPFAHLTINATDIPSGSHKVSLSSWYHDRGWAKISNMTFSNGKLIVNQDGFYYLYANICFRHHETSGDLATEYLQLMVYVTKTSIKIPSSHTLMKGGSTKYWSGNSEFHFYSINVGGFFKLRSGEEISIEVSNPSLLDPDQDATYFGAFKVRDID

Key:
[1] = system: unilateral transverse femur fractures mice; conditions: osteoclast inhibitors; cited from earlier work
[2] = system: three millimeter defects in femurs of athymic rats; test: Critical defect model in rat femurs, new bone formation by MicroCT; type: in vivo; conditions: two micrograms recombinant RANKL mixed with 150 mg Grafton DBM FLEX vs Grafton DBM FLEX alone, three weeks
Method: To test whether recombinant RANKL mixed with DBM may aid bone healing, a critical defect model was used in rat femurs. Three millimeter defects were created in femurs of athymic rats. The rats were divided into two groups, the bone defects from one group were implanted with 150 mg of Grafton® DBM FLEX (Osteotech, Eatontown, N.J.), the second group received Grafton® DBM FLEX mixed with two micrograms of recombinant RANKL. At three weeks, the rat femur defects were evaluated by MicroCT. […] Data was analyzed using paired student-t-test.

Row | Molecule | removal of cartilage and remodeling of the fracture callus [1] | new bone formation compared to control group [2]
1 | denosumab: osteoclast inhibitor | delayed | –
2 | NCCCC(O)(P(=O)(O)O)P(=O)(O)O [alendronate] | delayed | –
3 | B1 | – | significantly (p<0.05) higher
